Assay results from ChEMBL document CHEMBL3612061, “Imidazopyridines as a source of biological activity and their pharmacological potentials-Infrared and Raman spectroscopic evidence of their content in pharmaceuticals and plant materials” (Bioorg Med Chem, 2015).
≈ marks a conversion by molar mass, not a printed value.

Tested on: Vaccinia virus
Assay: Antiviral activity against Vaccinia virus assessed as protection against virus-induced cytopathogenic effect by cell based assay
Assay type: functional
Settings: Orthopoxvirus vaccinia; read-out: ID50 (the source's name)

For `Nc1nccc2c1ncn2C1C=C(CO)C(O)C1O` (stereo unspecified) [3-DEAZANEPLANOCIN A], the IC50 was 0.02 µg/mL (≈ 0.0763 µM).
